What was measured:
[1] = tested on: antibodies of clinically proven celiac positive samples; test: Immunological binding assay on Periphilin-1 overlapping peptide array; conditions: Periphilin-1 spanned as overlapping 12 amino acid peptides, signals significant when exceeding background (400) by a factor of 50
Procedure: Immunological binding assays were performed on an array produced using the materials and methods described in the Examples above. The samples that were used to run the assays included clinically proven celiac positive samples.
The immunoactive regions of Periphilin-1 were determined. With reference to FIG. 17, the microarray substrate including the Periphilin-1 sequence split into 12 amino acid length peptide sequences is shown. […] Determination of background noise, background subtraction, and identification of signals that exceed background noise routine and well within the level of ordinary skill in the microarray binding arts. In this example, the mean background signal intensity was estimated to be 400 and signals were determined to be significant when they exceeded background by a factor of 50.

[2] = tested on: IgA from a celiac positive sample; test: Antibody assay (B peptides) on peptide array, IgA binding
Procedure: A peptide array comprising peptide fragment sequences synthesized on the surface of the array was generated according to the methods described above. The peptide array was developed to test all 12 mer sequences from alpha-gliadin, including sequences where glutamine was substituted with glutamate, as described above (see, e.g., FIGS. 15 and 16). A reduction reaction was performed to remove the disulfide bonds that exist between cysteine residues. This reaction was not performed when epitopes involving cyclic peptides based on cysteine bonds are needed. Dithiothreitol was prepared in a concentration of 0.1 g per 20 mL PBS-Tween (PBST). The peptide microarray (herein referred to as the peptide chip) was immersed in the DTT solution and placed in a nitrogen atmosphere at a pressure of 40 Pa at room temperature for 1 hour. […]
The peptide array was then analyzed to detect antibody/peptide complexes. […]
A set of 12-mer sequences generating weakly or strongly positive binding signals to celiac positive samples was compiled (see, e.g., Table A in Appendix A of U.S. Provisional Application No. 61/761,347, incorporated herein by reference). Using a computer programmed to undertake sequence analysis, subsequences present within this set of 12-mer sequences were determined using a series of sliding windows having a minimum length of 3 amino acids and maximum length of 11 amino acids. […]

In the case of PQQPEQII, the “subsequence identified for antibody binding” value [1] is reported as “key subsequence for antibody binding”.

With QPEQPF [QPE-QPF] the “immune dominant subsequence (epitope) for antibody response amongst celiac positive subjects” value ([2]; alpha-gliadin 12-mer array incl. deamidated sequences, celiac positive samples) was “key immune dominant subsequence” and the sample binding hits ([2]; celiac-positive serum sample, IgA binding, FIG. 18, Row QPE, Column QPF) was 91.78%.

From US11565231B2, “Substrates, peptide arrays, and methods” (Vibrant Holdings, LLC, priority 2012, dated 2023)
